In patent US20260327234A1, “NOVEL COMPOUNDS AS CYP11A1 INHIBITORS AND METHODS OF USE THEREOF” (Shenzhen Ionova Life Science Co., Ltd., priority 2023, published 2026) one finds IC50 data, which are given here for 40 compounds.

The target in assay [1] is T1, testosterone (T) production in NCI-H295R cells (Homo sapiens, UniProt P05108).
T1 construct: testosterone measured by LC-MS/MS as downstream steroid
T1 sequence (P05108 40-521): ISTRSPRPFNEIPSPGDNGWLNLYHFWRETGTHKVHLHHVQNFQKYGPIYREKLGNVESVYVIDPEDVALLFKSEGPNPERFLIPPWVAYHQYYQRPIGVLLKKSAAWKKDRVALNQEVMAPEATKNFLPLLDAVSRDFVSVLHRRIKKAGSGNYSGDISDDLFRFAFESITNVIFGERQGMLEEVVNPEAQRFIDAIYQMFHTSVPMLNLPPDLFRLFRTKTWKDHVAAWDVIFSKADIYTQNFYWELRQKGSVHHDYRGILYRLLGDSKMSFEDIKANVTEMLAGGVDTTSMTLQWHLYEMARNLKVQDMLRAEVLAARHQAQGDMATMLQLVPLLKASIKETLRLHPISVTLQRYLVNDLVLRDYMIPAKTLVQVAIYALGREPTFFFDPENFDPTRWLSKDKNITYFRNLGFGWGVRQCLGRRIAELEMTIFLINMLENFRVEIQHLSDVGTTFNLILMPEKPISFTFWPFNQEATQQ
As to the kind of experiment: H295R Steroid Biosynthesis Inhibition Assay - inhibition of testosterone (T) production in NCI-H295R cells. The format is cell-based. To be noted: 48 h, LC-MS/MS, read-out: Inh. of T IC50. As to the method:
(§1) Steroid Biosynthesis Inhibition by test compounds in NCI-H295R cells (ATCC) was studied by measuring the cellular production of pregnenolone (P) catalyzed by CYP11A1 and the downstream steroid, testosterone (T). Cells were cultured in Dulbecco's modified eagle's medium F12 (DMEM/F12) with phenol red (Gibco, Cat. No. 11330032) supplemented with 2% UltroserG (Pall, Cat. No. 15950-017, USA), 1% ITS-Premix and 1% penicillin and streptomycin (Hyclone, Cat. No. SV30010, USA). Prior to the assay, cells were thawed and passed 4 times. The maximal passage number used for the assay was 10. For this assay, DMEM/F12 without phenol red supplemented with 10% charcoal-stripped fetal bovine serum (VivaCell, Cat. No. C3830-0500, USA) were used. In a 96-well plate, 60,000 cells/well were plated (90 μL/well) and incubated for 24 h. Test compounds, diluted in a serial dilution ranging from 1000 nM to 0.15 nM in the assay medium, were added to the plate. After 48 h of incubation, solution from each well were collected and transferred to individual 1.5 mL centrifuge tubes, and then 5 ng/mL deuterated testosterone (D3-testosterone) and 50 ng/mL deuterated pregnenolone (D4-pregnenolone) in 200 μL acetonitrile were added. After vigorously mixing for 5 min, the mixture was centrifuged at 12,700 rpm for 15 min. An aliquot of 250 μL supernatant was collected and dried under N2 stream. After addition of 150 μL Methanol:water (1:1, v/v) to the dried product, 50 μL sample of this solution was injected into the LC-MS/MS system for analysis.
(§2) The half-maximal inhibitory concentration (IC50) for steroid biosynthesis inhibition was determined by curve-fitting with the 4-variable inhibitory dose response equation using GraphPad Prism software.
(§3) Testosterone and pregnenolone were analyzed using Shimadzu LC30AD HPLC system (Shimadzu, Kyoto, Japan) coupled with AB SCIEX Qtrap 5500 triple quadrupole mass spectrometer (AB Sciex, Framingham, MA, USA) via ESI interface in the positive ionization mode. An ACQUITY UPLC BEH Shield RP18 column (1.7 μm, 2.1×50 mm, Milford, MA, USA) maintained at 40° C. was used to separate analytes and IS form the sample matrix.
(§4) The mobile phase was a mixture of 10 mM ammonium acetate in water containing 0.2% formic acid (A) and methanol containing 0.2% formic acid (B) at a flow rate of 0.6 mL/min. The gradient program was set as follows: from 0 min to 0.5 min, 60% B; from 0.5 min to 3.5 min, 90% B; from 3.5 min to 4.5 min, 90% B; from 4.51 min to 5.0 min, 60% B. The injection volume was […].
(§5) The MS/MS parameters were set as follows: ion spray voltage, 5500 V; curtain gas, 35 psi; Gas 1, 55 psi; Gas 2: 55 psi; temperature, […]. The optimized multiple reaction monitoring (MRM) fragmentation transitions and MS parameters of each analyte are summarized in Table 1.

The next assay addresses T2, CYP11A1 (Homo sapiens, UniProt P05108).
T2 construct: measuring the cellular production of pregnenolone (P) catalyzed by CYP11A1; host or cells: NCI-H295R
T2 sequence (P05108 40-521): T1 sequence (P05108 40-521)
Nature of the assay: H295R Steroid Biosynthesis Inhibition Assay - inhibition of pregnenolone (P) production catalyzed by CYP11A1 in NCI-H295R cells. Type of assay: cell-based. To be noted: 48 h, LC-MS/MS, read-out: Inh. of P IC50. As to the method: as §1, §2, §3, §4, §5

What is called IC50 is the point on the concentration scale where inhibition reaches its midpoint.

Regarding `CS(=O)(=O)N1CCC(c2cc3oc(CN4Cc5ccccc5C4)cc(=O)c3o2)CC1` [Compound 14], the 50% inhibitory concentration (IC50) (in assay [1]; at CYP11A1) was at most 40 nM in each case.
On to `CS(=O)(=O)N1CCC(COc2coc(CN3CCn4c(Cl)ccc4C3)cc2=O)CC1` [Compound 4], for which the IC50 is 41 to 100 nM in assay [1] and at most 40 nM on CYP11A1.
In the case of `CN(C)S(=O)(=O)N1CCC(c2cnc3cc(CN4Cc5ccccc5C4)ccc3n2)CC1` [Compound 99], the half-inhibitory concentration (IC50) in assay [1] was 41 to 100 nM; on CYP11A1, 40 to 100 nM.
As for `CC(c1ccc(OCC2CCN(S(C)(=O)=O)CC2)c2ncccc12)N1Cc2ccccc2C1` (centres unmarked) [Compound 9], the IC50 (in assay [1]; on CYP11A1) was at most 40 nM in each case.
As to `Cc1nc(C2CCN(S(C)(=O)=O)CC2)nc2ccc(CN3Cc4ccccc4C3)cc12` [Compound 83], the IC50 (in assay [1]; at CYP11A1) was at most 40 nM each time.
On to `CS(=O)(=O)N1CCC(c2cc(=O)c3nc(CN4Cc5ccccc5C4)ccc3o2)CC1` [Compound 61], for which the figures for the concentration for half-maximal inhibition (IC50) (in assay [1]; at CYP11A1) were at least 101 nM and at least 100 nM, respectively.
For `COc1ccc2c(c1)CN(Cc1cc(=O)c3oc(C4CCN(S(C)(=O)=O)CC4)cc3o1)C2` [Compound 19] the same measures were at most 40 nM and at most 40 nM.
The like results for `CS(=O)(=O)N1CCC(c2ccc3cc(CN4Cc5ccc(F)cc5C4)ccc3n2)CC1` [Compound 72] were, in that order, at most 40 nM and at most 40 nM.
For `CS(=O)(=O)N1CCC(c2cc(=O)c3cc(CN4Cc5ccccc5C4)ccc3o2)CC1` [Compound 60] the same measures were at most 40 nM and at most 40 nM.
Turning to `CS(=O)(=O)N1CCC(c2nc3cc(CN4Cc5ccccc5C4)ccc3s2)CC1` [Compound 128], the results for the IC50 (in assay [1]; at CYP11A1) were 41 to 100 nM and at most 40 nM, respectively.
For `O=c1cc(CN2Cc3ccccc3C2)oc2cc([C@H]3CC4CCC(C3)[C@H]4O)oc12` [Compound 33] the same measures were 41 to 100 nM and 40 to 100 nM.
For `O=c1cc(CN2Cc3ccccc3C2)occ1OC[C@H]1CC[C@H](O)CC1` [Compound 2], the IC50 (in assay [1]; at CYP11A1) was at most 40 nM throughout.
For the compound `CS(=O)(=O)N1CCC(c2cnc3cc(CN4Cc5ccc(F)cc5C4)ccc3n2)CC1` [Compound 87], the half-maximal inhibitory concentration (IC50) (in assay [1]; on CYP11A1) was at most 40 nM throughout.
For `CN(C)C(=O)N1CCC(c2cnc3cc(CN4Cc5ccccc5C4)ccc3n2)CC1` [Compound 121], the IC50 was 41 to 100 nM in assay [1] and at most 40 nM at CYP11A1.
As to `CS(=O)(=O)N1CCC(COc2ccc(C3(N4Cc5ccccc5C4)CC3)c3cccnc23)CC1` [Compound 10], the results for the IC50 (in assay [1]; on CYP11A1) were at least 101 nM and 40 to 100 nM, respectively.
For `O=c1cc(CN2Cc3ccccc3C2)oc2cc(C3C4CC(O)CC43)oc12` (centres unmarked) [Compound 39] the same measures were at most 40 nM and at most 40 nM.
For `COc1ccc2c(c1)CN(Cc1ccc3nc(C4CCN(S(C)(=O)=O)CC4)ccc3c1)C2` [Compound 73] the same measures were at most 40 nM and at most 40 nM.
For `CC(C)NC(=O)N1CCC(c2cnc3cc(CN4Cc5ccccc5C4)ccc3n2)CC1` [Compound 117], the results for the IC50 (in assay [1]; on CYP11A1) were at least 101 nM and 40 to 100 nM, respectively.
The like results for `CS(=O)(=O)N1CCC(c2cc3oc(CN4Cc5ccc(C(F)(F)F)cc5C4)cc(=O)c3o2)CC1` [Compound 20] were, in that order, at most 40 nM and at most 40 nM.
For `O=c1cc(CN2CCn3cccc3C2)oc2cc([C@H]3CC[C@H](O)CC3)oc12` [Compound 54] the same measures were 41 to 100 nM and at most 40 nM.
For the compound `O=c1cc(CN2Cc3ccccc3C2)oc2cc(C3CCC(F)(F)CC3)oc12` [Compound 26], the values for the half-inhibitory concentration (IC50) (in assay [1]; on CYP11A1) were at least 101 nM and 40 to 100 nM, respectively.
The like results for `CS(=O)(=O)N1CCC(COc2ccc(CN3Cc4ccccc4C3)c3ccccc23)CC1` [Compound 7] were, in that order, at most 40 nM and at most 40 nM.
Turning to `O=c1cc(CN2Cc3ccccc3C2)oc2cc([C@@H]3CCC[C@@H](O)C3)oc12` [Compound 36], the IC50 in assay [1] was at least 101 nM; on CYP11A1 it was 40 to 100 nM.
The like results for `O=c1cc(CN2Cc3ccccc3C2)oc2cc([C@@H]3CCC[C@@H](O)CC3)oc12` (racemic) [Compound 42] were, in that order, at most 40 nM and at most 40 nM.
Regarding `CNS(=O)(=O)N1CCC(c2cnc3cc(CN4Cc5ccccc5C4)ccc3n2)CC1` [Compound 100], the concentration for half-maximal inhibition (IC50) (in assay [1]; at CYP11A1) was at most 40 nM each time.
With `CS(=O)(=O)N1CCC(c2ncc3cc(CN4Cc5ccccc5C4)ccc3n2)CC1` [Compound 82], the IC50 in assay [1] was 41 to 100 nM; at CYP11A1, at most 40 nM.
The like results for `O=c1cc(CN2Cc3ccccc3C2)oc2cc([C@H]3CC[C@@]4(O)CC4C3)oc12` (some centres unmarked) [Compound 40] were, in that order, at most 40 nM and at most 40 nM.
For `O=S(=O)(N1CCC(c2cnc3cc(CN4Cc5ccccc5C4)ccc3n2)CC1)C(F)(F)F` [Compound 97] the same measures were at least 101 nM and 40 to 100 nM.
The like results for `O=C(C1CC1)N1CCC(c2cnc3cc(CN4Cc5ccccc5C4)ccc3n2)CC1` [Compound 102] were, in that order, 41 to 100 nM and 40 to 100 nM.
Take `CO[C@H]1CC[C@H](c2cc3oc(CN4Cc5ccccc5C4)cc(=O)c3o2)CC1` [Compound 38]: the half-maximal inhibitory concentration (IC50) (in assay [1]; at CYP11A1) was at most 40 nM throughout.
In the case of `CS(=O)(=O)N1C[C@@H]2[C@H](C1)[C@H]2c1ccc2cc(CN3Cc4ccccc4C3)ccc2n1` [Compound 56, 6-(isoindolin-2-ylmethyl)-2-((1R,5S,6r)-3-(methylsulfonyl)-3-azabicyclo[3.1.0]hexan-6-yl)quinoline], the IC50 (in assay [1]; on CYP11A1) was at most 40 nM each time.
For `CS(=O)(=O)N1CCC(c2ccc3nc(CN4Cc5ccccc5C4)ccc3n2)CC1` [Compound 79], the concentration for half-maximal inhibition (IC50) (in assay [1]; on CYP11A1) was at most 40 nM each time.
`CS(=O)(=O)N1CCC(c2ccc3cc(CN4Cc5ccccc5C4)cnc3c2)CC1` [Compound 67]: the IC50 (in assay [1]; at CYP11A1) was at most 40 nM throughout.
As for `CS(=O)(=O)N1CCC(c2ccc3cc(CN4Cc5ccccc5C4)cnc3n2)CC1` [Compound 78], the half-inhibitory concentration (IC50) (in assay [1]; at CYP11A1) was at most 40 nM throughout.
Consider `CS(=O)(=O)N1CCC(c2cc3cc(CN4Cc5ccccc5C4)ccc3o2)CC1` [Compound 126], for which the IC50 (in assay [1]; at CYP11A1) was at most 40 nM throughout.
For `Cn1ccnc1C(=O)N1CCC(c2cnc3cc(CN4Cc5ccccc5C4)ccc3n2)CC1` [Compound 108], the IC50 in assay [1] was at least 101 nM; at CYP11A1, 40 to 100 nM.
On to `Cn1c(C2CCN(S(C)(=O)=O)CC2)nc2ccc(CN3Cc4ccccc4C3)cc21` [Compound 130], for which the values for the IC50 (in assay [1]; on CYP11A1) were at least 101 nM and at most 40 nM, respectively.
The like results for `CS(=O)(=O)N1CCC(c2cnc3cc(CN4Cc5ccc(C(F)(F)F)cc5C4)ccc3n2)CC1` [Compound 90] were, in that order, at most 40 nM and at most 40 nM.
For `O=C(OC1CCCC1)N1CCC(c2cnc3cc(CN4Cc5ccccc5C4)ccc3n2)CC1` [Compound 114] the same measures were at most 40 nM and at most 40 nM.
For `CCOC(=O)N1CCC(c2cnc3cc(CN4Cc5ccccc5C4)ccc3n2)CC1` [Compound 111] the same measures were at most 40 nM and at most 40 nM.
